Values quoted from earlier work in patent US20050159471A1, “Compositions of a benzenesulfonamide or methylsulfonylbenzene cyclooxygenase-2 selective inhibitor and a cholinergic agent for the treatment of reduced blood flow or trauma to the central nervous system” (Pharmacia Corporation, priority 2003, published 2005).

Conditions: administered to subjects following stroke

citicoline
behavioral parameters: improvement in behavioral parameters
infarction volume: decrease in infarction volume
